Like-named read-outs stand apart in the source and are kept apart here.
What was measured:
[1] = tested on: Palmer amaranth, waterhemp, kochia, common ragweed or marestail; conditions: spot foliar treatment of 20% of pot area, 560 g/ha dicamba acid equivalence, 150 L/ha; soybean, corn or cotton seeded immediately after, grown 21 days; compared with plot without crop and plot with uniform blanket treatment at 560 g/ha
Procedure: (§1) The evaluation of the herbicidal efficacy is classified into 0 to 100, where the numeral “0” indicates no or little difference in the state of emergence or growth of weeds under test at the time of examination as compared with untreated weeds, and the numeral “100” indicates the complete death of weeds under test or the complete inhibition of emergence or growth of weeds under test.
A pot is filled with a soil, and then Palmer amaranth, waterhemp, kochia, common ragweed or marestail is seeded at a corner portion of the soil. […] Immediately thereafter, soybean (Genuity Roundup Ready 2 Xtend), corn (Genuity Roundup Ready 2), or cotton (Genuity Roundup Ready 2 Xtend) is seeded in a corner portion different from vegetation patches of weeds in the soil, and grown in the greenhouse for 21 days. This is defined as the invention plot.

[2] = tested on: Palmer amaranth, waterhemp, kochia, common ragweed or marestail; conditions: weeds and soybean, corn or cotton grown 14 days, spot foliar treatment of 20% of pot area, 560 g/ha dicamba acid equivalence, 150 L/ha, then grown 21 days; compared with plot without crop and plot with uniform blanket treatment at 560 g/ha
Procedure: as §1
A pot is filled with soil, and then Palmer amaranth, waterhemp, kochia, common ragweed, or marestail is seeded at a corner portion of the soil, and soybean (Genuity Roundup Ready 2 Xtend), corn (Genuity Roundup Ready 2), or cotton (Genuity Roundup Ready 2 Xtend) is seeded at another corner portion of the soil. […] Thereafter, the weeds and crops are grown in the greenhouse for 21 days. This is defined as the invention plot.

CN(CCCN)CCCN.COc1c(Cl)ccc(Cl)c1C(=O)O [dicamba-biproamine]
weed control effect [1]: excellent weed control effect | weed control effect [2]: excellent weed control effect

Source: patent publication US12336540B2, “Method for controlling weeds” (SUMITOMO CHEMICAL COMPANY, LIMITED, priority 2019, dated 2025)
